Legend:
[1] = Chemical stability of nepafenac in 1% w/v γCD solution after heating by sonication; type: physicochemical; settings: for Mean (± SD) Nepafenac Concentration: aqueous 1% w/v γCD, n = 3
Method: The chemical stability of nepafenac was determined in aqueous solution containing 1% w/v γCD following heating by sonication. The solution was shaken for 24 h until the drug was completely dissolved and then passed through a 0.45 µm membrane filter. The solution was then divided between four sealed vials. Vial 1 was used as a blank. Vials 2, 3 and 4 were heated in a sonicator at 60 °C for 20, 40 and 60 min, respectively. Drug concentrations were determined by HPLC.
The HPLC assay was performed using a reverse-phase ultra-high-performance liquid chromatography (UHPLC) Ultimate 3000 series system (Dionex Softron GmbH, Germering, Germany) consisting of a LPG-3400SD pump (Dionex, Germering, Germany) with a built-in degasser, WPS-3000 autosampler (Dionex, Germering, Germany), TCC-3100 column compartment (Dionex, Germering, Germany) and CoronaR ultra RS detector (Dionex, Germering, Germany). During the stationary phase, a Phenomenex Kinetex C18 column (150 × 4.6 mm, 5 µm) with matching HPLC Security Guard (Phenomenex, Cheshire, UK) was used. The mobile phase used a mixture of acetonitrile and water (50:50). The flow rate was 1 mL/min, the column oven temperature was ±25 °C and the detection wave length was set to 254 nm. The retention time for nepafenac under these conditions was 2.3 min.

[2] = Phase solubility studies of nepafenac with cyclodextrins; type: physicochemical; settings: pure 2.5% HPβCD, aqueous (Figure 2)
Method: The solubility of nepafenac in combination with different cyclodextrin concentrations was determined following heating by sonication. Firstly, an excess amount of nepafenac (approximately 5 mg) was added to aqueous solutions containing known concentrations of CDs (ranging up to 15% (w/v) for αCD, γCD, HPαCD, HPβCD, HPγCD and 1.5% (w/v) for βCD) in pure water. The drug suspensions were saturated with nepafenac and heated in a sonicator in sealed vials at 60 °C for 60 min, before being allowed to cool to room temperature. Then, a small amount of solid nepafenac (approximately 2 mg) was added to each suspension to produce drug precipitation. Vials were resealed and placed in a shaker under constant agitation for 7 days. After reaching equilibrium, suspensions were filtered using 0.45 µm membrane filters, before being diluted in pure water and analysed by UHPLC. Determinations were made in triplicate. […]
The apparent stability constant (K1:1) according to the hypothesis of a 1:1 stoichiometric ratio of complexes was calculated using the following equation:(1) K1:1 = slope/S0(1−slope)
In addition, complexation efficiency (CE) was calculated. This factor can be calculated either from the slope of the phase solubility profile or from the ratio of the concentration of the drug/CD complex to free CD [52]:(2) CE=slope/(1−slope)=[Guess/CD complex]/[CD]

[3] = design: method as in PMID 27513223, PMID 18500088, PMID 17189793, PMID 28493461; settings: powdered form; cited from earlier work
[4] = system: human cornea epithelial cell line; design: method as in PMID 9706061; settings: cited from earlier work

Degradation of nepafenac on heating by sonication ([1]; CD aqueous solutions, sonicator heating)	Mean (± SD) Nepafenac Concentration ([1]; sonication 60 °C 20 min)	Mean (± SD) Nepafenac Concentration ([1]; sonication 60 °C 40 min)	Mean (± SD) Nepafenac Concentration ([1]; sonication 60 °C 60 min)	Solubility of nepafenac [2]	Structure (SMILES)	Biopharmaceutical Classification System class [3]	Cytotoxic profile (ranking among CDs) [4]
no degradation	6.41 ± 0.08 µg/mL	6.49 ± 0.07 µg/mL	6.57 ± 0.08 µg/mL	850 µg/mL	NC(=O)Cc1cccc(C(=O)c2ccccc2)c1N [Nepafenac, 2-amino-3-benzoylbenzeneacetamide]	class IV	–
–	–	–	–	–	OC[C@H]1O[C@@H]2O[C@H]3[C@H](O)[C@@H](O)[C@@H](O[C@H]4[C@H](O)[C@@H](O)[C@@H](O[C@H]5[C@H](O)[C@@H](O)[C@@H](O[C@H]6[C@H](O)[C@@H](O)[C@@H](O[C@H]7[C@H](O)[C@@H](O)[C@@H](O[C@H]8[C@H](O)[C@@H](O)[C@@H](O[C@H]9[C@H](O)[C@@H](O)[C@@H](O[C@H]1[C@H](O)[C@H]2O)O[C@@H]9CO)O[C@@H]8CO)O[C@@H]7CO)O[C@@H]6CO)O[C@@H]5CO)O[C@@H]4CO)O[C@@H]3CO [γCD, γ-cyclodextrin]	–	least cytotoxic profile

Source: publication PMC6356765, “Nepafenac-Loaded Cyclodextrin/Polymer Nanoaggregates: A New Approach to Eye Drop Formulation” (Materials, 2019)
